Laboratory results as given in patent publication US12329758B2, “Methods for the treatment of psoriatic arthritis” (Alfasigma S.p.A., priority 2018, dated 2025).

What was measured:
Type in all cases: in vivo, human
[1] = tested on: moderately to severely active PsA; experiment: Phase 2 clinical study NCT03101670, ACR20/50/70 response; conditions: for ACR20 / ACR50 / ACR70: 200 mg q.d.
From the text: For the purpose of the present invention, the terms “ACR20”, “ACR50” and “ACR70” as used herein are scores which indicate how much a patient's symptoms of peripheral arthritis have improved according to criteria set out by the American College of Rheumatology (ACR). The ACR score represents a percentage. An ACR20 score means that a person's arthritis symptoms have improved by 20%, an ACR50 score means it has improved by 50%, and an ACR70 score means it has improved by 70%. Specifically, to qualify for an ACR20 score, a person must have at least 20% fewer tender joints (at least 20% improvement from baseline in tender joint counts, TJC68) and at least 20% fewer swollen joints (at least 20% improvement from baseline in swollen joint counts, SJC66). In addition the patient must show a 20% improvement in at least three of the following five areas: the person's overall (global) assessment of his or her own disease activity (on a 0-100 mm visual analog scale (VAS)), the physician's global assessment of the person's disease activity (on a 0-100 mm VAS), the person's assessment of his or her own PsA pain intensity (on a 0-100 mm VAS), the person's assessment of his or her own physical functioning as measured by HAQ-DI, and the results of a C-reactive protein (CRP) blood test (in mg/dL or mg/L). ACR50 and ACR70 scores use the same criteria but require 50% and 70% improvement, respectively.
(§1) This is a multicenter, Phase 2, double-blind, placebo-controlled study in subjects with moderately to severely active PsA who have an inadequate response or are intolerant to conventional disease-modifying therapy. […] Randomization to treatment groups are stratified by current cDMARD use (yes or no) and prior anti-TNF pharmaceutical use (yes or no).
Efficacy assessments to estimate signs and symptoms of PsA and peripheral arthritis, psoriasis, enthesitis, dactylitis, spondylitis, and physical function are carried out at Baseline (Day 1) and at Weeks 1, 2, 4, 8, 12, 16, or at the early discontinuation visit (EDV) if applicable, unless otherwise noted. The individual components of the ACR response criteria are obtained at screening and throughout the study.
The patient's assessment of pain is performed using a 0-100 mm VAS ranging from “no pain” to “unbearable pain” after the question “Please indicate with a vertical mark (|) through the horizontal line the most pain you had from your psoriatic arthritis today”. The length of the line from 0 to the patient's mark is recorded. This assessment should be completed before the joint examination. This pain score is also used to derive the ACR20/50/70.
The signs and symptoms of peripheral arthritis are measured using ACR20/50/70. The ACR response is a measurement of improvement in multiple disease assessment criteria.
A positive ACR20 response is defined as at least 20% improvement from baseline in both swollen (SJC66) and tender (TJC68) joint counts, and at least 20% improvement in 3 or more of the following 5 criteria: • Patient's Global Assessment of Disease Activity (0-100 mm VAS) • Physician's Global Assessment of Disease Activity (0-100 mm VAS) • Patient's Global Assessment of PsA pain intensity (0-100 mm VAS) • Patient's assessment of physical function as measured by HAQ-DI • CRP in mg/dL or mg/L
A positive ACR50 and ACR70 response is derived from the definition of the ACR20, but requiring at least 50% and 70% improvement, respectively.

[2] = tested on: moderately to severely active PsA; experiment: Phase 2 clinical study NCT03101670, Minimal Disease Activity (MDA); conditions: 200 mg q.d.
From the text: As used herein, the term ‘MDA’ refers to the Minimal Disease Activity, which is a measure for disease remission. For the purpose of the present invention a patient will be classified as having achieved MDA when 5 out of 7 of the following criteria are met: • TJC68 ≤1 • SJC66 ≤1 • PASI ≤1 or BSA ≤3% • Patient's Global Assessment of PsA pain intensity score ≤15 (0-100 mm VAS) • Patient's Global Assessment of Disease Activity ≤20 (0-100 mm VAS) • HAQ-DI ≤0.5 • SPARCC Enthesitis Index ≤1.
as §1
The disease activity in PsA will be measured using the MDA, which is a measure to indicate disease remission. The MDA is based on a composite score of 7 domains. A patient will be classified as having achieved MDA when 5 out of 7 of the following criteria are met: • TJC68 ≤1 • SJC66 ≤1 • PASI ≤1 or BSA ≤3% • Patient's Global Assessment of PsA pain intensity score ≤15 (0-100 mm VAS) • Patient's Global Assessment of Disease Activity ≤20 (0-100 mm VAS) • HAQ-DI ≤0.5 • SPARCC Enthesitis Index ≤1

[3] = tested on: enthesitis in PsA patients; experiment: Phase 2 clinical study NCT03101670, enthesitis by Leeds Enthesitis Index (LEI); conditions: for LEI score (change from baseline): 200 mg q.d.
From the text: As used herein, the term ‘Leeds Enthesitis Index’ or ‘LEI’ refers to a clinical scoring after examination of (entheseal) tenderness at six sites: 2 sites at each of the lateral epicondyles of the humerus, medial condyles of the femur and the insertion of the Achilles tendon. The LEI score range is 0-6. The higher the score, the higher the enthesitis burden.
as §1
In addition to the 16 sites used to assess enthesitis when evaluating the SPARCC Enthesitis Index, medial femoral condyles (left and right) is also assessed and evaluated in a similar way as the other 16 sites to allow assessing the Leeds enthesitis index (LEI).
Enthesitis is assessed using the SPARCC Enthesitis Index and Leeds Enthesitis Index (LEI). The Enthesitis parameters are analyzed only in the subpopulation of subjects who have enthesitis at baseline (LEI >0). Analysis focusses on the changes from baseline.

`O=C(Nc1nc2cccc(-c3ccc(CN4CCS(=O)(=O)CC4)cc3)n2n1)C1CC1` [compound I, cyclopropanecarboxylic acid {5-[4-(1,1-dioxo-thiomorpholin-4-ylmethyl)-phenyl]-[1,2,4]triazolo[1,5-a]pyridin-2yl}-amide] was tested, and the ACR20 ([1]; Week 1) was 26.2%, the ACR50 ([1]; Week 1) was 6.2% and the ACR70 ([1]; Week 1) was 1.5%. It also gave an ACR20 ([1]; Week 2) of 33.8%, an ACR50 ([1]; Week 2) of 10.8% and an ACR70 ([1]; Week 2) of 3.1%. For the same molecule, the ACR20 ([1]; Week 4) was 61.5%, the ACR50 ([1]; Week 4) was 20.0% and the ACR70 ([1]; Week 4) was 7.7%. For the same molecule, the ACR20 ([1]; Week 8) was 67.7%, the ACR50 ([1]; Week 8) was 32.3% and the ACR70 ([1]; Week 8) was 12.3%. The ACR20 ([1]; Week 12) was 83.1%, the ACR50 ([1]; Week 12) was 41.5% and the ACR70 ([1]; Week 12) was 10.8%. For the same molecule, the ACR50 ([1]; Week 16) was 47.7%, the ACR70 ([1]; Week 16) was 23.1% and the “ACR20 and ACR50 difference from placebo” value ([1]; as from week 1) was “statistically significant difference from placebo”. For the same molecule, the “difference in ACR20, ACR50 and ACR70 score versus placebo” value ([1]; week 16) was “statistically significant difference”, the MDA ([2]; Week 12) was 21.5% and the MDA ([2]; Week 16) was 23.1%. The “LEI score (change from baseline)” value ([3]; Week 4, enthesitis at baseline (LEI >0)) was −1.7, the “LEI score (change from baseline)” value ([3]; Week 8, enthesitis at baseline (LEI >0)) was −2.1 and the “LEI score (change from baseline)” value ([3]; Week 12, enthesitis at baseline (LEI >0)) was −1.9. The “LEI score (change from baseline)” value ([3]; Week 16, enthesitis at baseline (LEI >0)) was −1.8 and the “Enthesitis resolved per LEI, treatment difference versus placebo” value ([3]; patients with enthesitis at baseline) was 26%.
